# Molecular target: T1, NanoBiT® HiBiT non-luminescent peptide and LgBiT non-luminescent polypeptide (HiBiT/LgBiT bioluminescent complex) (Oplophorus gracilirostris, UniProt Q9GV45, A31E/A60N/A81I/C191F/D135N/E192K/F58L/F95D/G184S/G42A/G62A/G78A/G94A/G98A/H120P/I103V/I117V/I134L/K70R/L176M/L195S/L54V/L73R/L99Q/M102E/N171T/N193K/P142E/Q151K/Q38E/Q45L/T186S/V71I/Y165I)
# T1 construct: fused on or other part: N-terminal Met-Val on LgBiT in place of the signal peptide (residues 1-27); The chain is split between residues 184 and 185 into LgBiT and the 11-residue HiBiT peptide (residues 185-195); C-terminal A196 is absent
# T1 sequence (Q9GV45 other isoform, or with tags, fused parts or gaps with the stated changes): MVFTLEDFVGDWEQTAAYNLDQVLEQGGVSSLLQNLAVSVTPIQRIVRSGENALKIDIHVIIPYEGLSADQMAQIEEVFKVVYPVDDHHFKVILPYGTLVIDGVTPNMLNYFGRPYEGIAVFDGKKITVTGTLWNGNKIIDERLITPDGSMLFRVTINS
# Test: biochemical
smiles,measurement,value
"Cc1ccc(S(=O)(=O)Nc2ccccc2C(=O)Nc2cc3ccccc3s2)cc1 [HL-0005, N-(benzo[b]thiophen-2-yl)-2-((4-methylphenyl)sulfonamido)benzamide]",IC50,3.9 nM
"Cc1ccc(S(=O)(=O)Nc2ccccc2C(=O)NC2CCCCC2)cc1 [HL-0006, N-cyclohexyl-2-((4-methylphenyl)sulfonamido)benzamide]",IC50,210 nM
"Cc1ccc(S(=O)(=O)Nc2ccccc2C(=O)Nc2ccc3ccccc3c2)cc1 [HL-0007, 2-((4-methylphenyl)sulfonamido)-N-(naphthalen-2-yl)benzamide]",IC50,14 nM
"Cc1ccc(S(=O)(=O)Nc2ccccc2C(=O)Nc2ccc3c(c2)CCCC3)cc1 [HL-0008, 2-((4-methylphenyl)sulfonamido)-N-(5,6,7,8-tetrahydronaphthalen-2-yl)benzamide]",IC50,24 nM
"COC(=O)[C@H]1CC[C@H](NC(=O)c2ccccc2NS(=O)(=O)c2ccc(C)cc2)CC1 [HL-0009, methyl trans-4-(2-((4-methylphenyl)sulfonamido)benzamido)cyclohexane-1-carboxylate]",IC50,16000 nM
"N#Cc1c(NC(=O)c2ccccc2NS(=O)(=O)c2ccccc2)sc2c1CCC2 [HL-0010, N-(3-cyano-5,6-dihydro-4H-cyclopenta[b]thiophen-2-yl)-2-(phenylsulfonamido)benzamide]",IC50,22 nM
"Cc1ccc(S(=O)(=O)Nc2ccccc2C(=O)N[C@H]2CC[C@H](C(=O)O)CC2)cc1 [HL-0012, trans-4-(2-((4-methylphenyl)sulfonamido)benzamido)cyclohexane-1-carboxylic acid]",IC50,490 nM
"Cc1ccc(NC(=O)c2ccccc2NS(=O)(=O)c2ccc(C)cc2)cc1 [HL-0019, 2-((4-methylphenyl)sulfonamido)-N-(p-tolyl)benzamide]",IC50,29 nM
"CCOC(=O)Cc1ccc(NC(=O)c2ccccc2NS(=O)(=O)c2ccc(C)cc2)cc1 [HL-0023, ethyl 2-(4-(2-((4-methylphenyl)sulfonamido)benzamido)phenyl)acetate]",IC50,580 nM
"Cc1ccc(S(=O)(=O)Nc2ccccc2C(=O)Nc2cccc(C(C)C)c2)cc1 [HL-0025, N-(3-isopropylphenyl)-2-((4-methylphenyl)sulfonamido)benzamide]",IC50,85 nM
"CCOC(=O)c1cccc(NC(=O)c2ccccc2NS(=O)(=O)c2ccc(C)cc2)c1 [HL-0026, ethyl 3-(2-((4-methylphenyl)sulfonamido)benzamido)benzoate]",IC50,240 nM
"O=Cc1ccc(S(=O)(=O)Nc2ccccc2C(=O)Nc2cc3ccccc3s2)cc1 [HL-0038, N-(benzo[b]thiophen-2-yl)-2-((4-formylphenyl)sulfonamido)benzamide]",IC50,44 nM
"COC(=O)CCc1ccc(S(=O)(=O)Nc2ccccc2C(=O)Nc2cc3ccccc3s2)cc1 [HL-0040, methyl 3-(4-(N-(2-(benzo[b]thiophen-2-ylcarbamoyl)phenyl)sulfamoyl)phenyl)propanoate]",IC50,430 nM
"Cc1cccc(S(=O)(=O)Nc2ccccc2C(=O)Nc2cc3ccccc3s2)c1 [HL-0041, N-(benzo[b]thiophen-2-yl)-2-((3-methylphenyl)sulfonamido)benzamide]",IC50,13 nM
"Cc1ccc(S(=O)(=O)Nc2ccccc2C(=O)Nc2cccc(C)c2)cc1 [HL-0044, 2-((4-methylphenyl)sulfonamido)-N-(m-tolyl)benzamide]",IC50,88 nM
"Cc1ccc(S(=O)(=O)Nc2cc3ccccc3cc2C(=O)Nc2cc3ccccc3s2)cc1 [HL-0057, N-(benzo[b]thiophen-2-yl)-3-((4-methylphenyl)sulfonamido)-2-naphthamide]",IC50,55 nM
"CCCc1ccccc1NC(=O)c1ccccc1NS(=O)(=O)c1ccc(C)cc1 [HL-0059, 2-((4-methylphenyl)sulfonamido)-N-(2-propylphenyl)benzamide]",IC50,190 nM
"Cc1ccc(S(=O)(=O)Nc2ccc(C)cc2C(=O)Nc2cc3ccccc3s2)cc1 [HL-0061, N-(benzo[b]thiophen-2-yl)-5-methyl-2-((4-methylphenyl)sulfonamido)benzamide]",IC50,29 nM
"O=C(Nc1cc2ccccc2s1)c1ccccc1NS(=O)(=O)c1ccc(CCCO)cc1 [HL-0062, N-(benzo[b]thiophen-2-yl)-2-((4-(3-hydroxypropyl)phenyl)sulfonamido)benzamide]",IC50,1200 nM
"CCCCc1cccc(NC(=O)c2ccccc2NS(=O)(=O)c2ccc(C)cc2)c1 [HL-0070, N-(3-butylphenyl)-2-((4-methylphenyl)sulfonamido)benzamide]",IC50,130 nM
"Cc1ccc(S(=O)(=O)Nc2ccc(C#N)cc2C(=O)Nc2cc3ccccc3s2)cc1 [HL-0071, N-(benzo[b]thiophen-2-yl)-5-cyano-2-((4-methylphenyl)sulfonamido)benzamide]",IC50,43 nM
"Cc1ccc(S(=O)(=O)Nc2ccccc2C(=O)Nc2sc3c(c2C#N)CCC3)cc1 [JRW-0998, N-(3-cyano-5,6-dihydro-4H-cyclopenta[b]thiophen-2-yl)-2-((4-methylphenyl)sulfonamido)benzamide]",IC50,43 nM
"Cc1ccc(S(=O)(=O)Nc2ccccc2C(=O)Nc2sc3c(c2C#N)CCCC3)cc1 [JRW-1004, N-(3-cyano-4,5,6,7-tetrahydrobenzo[b]thiophen-2-yl)-2-((4-methylphenyl)sulfonamido)benzamide]",IC50,30 nM
"Cc1ccc(S(=O)(=O)Nc2ccccc2C(=O)Nc2sccc2C#N)cc1 [JRW-1006, N-(3-cyanothiophen-2-yl)-2-((4-methylphenyl)sulfonamido)benzamide]",IC50,1000 nM
"Cc1ccc(S(=O)(=O)Nc2ccccc2C(=O)Nc2ccccc2C#N)cc1 [JRW-1008, N-(2-cyanophenyl)-2-((4-methylphenyl)sulfonamido)benzamide]",IC50,240 nM
"Cc1ccc(S(=O)(=O)Nc2ccccc2C(=O)Nc2ccccc2)cc1 [JRW-1011, 2-((4-methylphenyl)sulfonamido)-N-phenylbenzamide]",IC50,94 nM
"CCCCc1ccc(NC(=O)c2ccccc2NS(=O)(=O)c2ccc(C)cc2)cc1 [JRW-1076, N-(4-butylphenyl)-2-((4-methylphenyl)sulfonamido)benzamide]",IC50,26 nM
"O=C(Nc1cc2ccccc2s1)c1ccccc1NS(=O)(=O)c1ccc2c(c1)CCCC2 [JRW-1077, N-(benzo[b]thiophen-2-yl)-2-((5,6,7,8-tetrahydronaphthalene)-2-sulfonamido)benzamide]",IC50,89 nM
"CCCCCCc1ccc(NC(=O)c2ccccc2NS(=O)(=O)c2ccc(C)cc2)cc1 [JRW-1090, N-(4-hexylphenyl)-2-((4-methylphenyl)sulfonamido)benzamide]",IC50,1100 nM
"CCCCc1ccc(S(=O)(=O)Nc2ccccc2C(=O)Nc2cc3ccccc3s2)cc1 [JRW-1114, N-(benzo[b]thiophen-2-yl)-2-((4-butylphenyl)sulfonamido)benzamide]",IC50,170 nM
"CCCCc1ccc(NS(=O)(=O)c2ccc(C)cc2)c(C(=O)Nc2cc3ccccc3s2)c1 [JRW-1146, N-(benzo[b]thiophen-2-yl)-5-butyl-2-((4-methylphenyl)sulfonamido)benzamide]",IC50,630 nM
"Cc1ccc(S(=O)(=O)Nc2ccccc2C(=O)Nc2ccc(CCCCO)cc2)cc1 [JRW-1150, N-(4-(4-hydroxybutyl)phenyl)-2-((4-methylphenyl)sulfonamido)benzamide]",IC50,19000 nM
"Cc1ccc(S(=O)(=O)Nc2ccccc2C(=O)Nc2ccc(CCCCBr)cc2)cc1 [JRW-1152, N-(4-(4-bromobutyl)phenyl)-2-((4-methylphenyl)sulfonamido)benzamide]",IC50,120 nM
"COc1ccc(NS(=O)(=O)c2ccc(C)cc2)c(C(=O)Nc2ccc(C)cc2)c1 [JRW-1166, 5-methoxy-2-((4-methylphenyl)sulfonamido)-N-(p-tolyl)benzamide]",IC50,130 nM
"COc1ccc(NS(=O)(=O)c2ccc(C)cc2)c(C(=O)Nc2cc3ccccc3s2)c1 [JRW-1167, N-(benzo[b]thiophen-2-yl)-5-methoxy-2-((4-methylphenyl)sulfonamido)benzamide]",IC50,20 nM
"COc1ccc(C(=O)Nc2ccc(C)cc2)c(NS(=O)(=O)c2ccc(C)cc2)c1 [JRW-1202, 4-methoxy-2-((4-methylphenyl)sulfonamido)-N-(p-tolyl)benzamide]",IC50,180 nM
"COc1ccc(C(=O)Nc2cc3ccccc3s2)c(NS(=O)(=O)c2ccc(C)cc2)c1 [JRW-1203, N-(benzo[b]thiophen-2-yl)-4-methoxy-2-((4-methylphenyl)sulfonamido)benzamide]",IC50,100 nM
"COc1cccc(S(=O)(=O)Nc2ccccc2C(=O)Nc2ccc(C)cc2)c1 [JRW-1205, 2-((3-methoxyphenyl)sulfonamido)-N-(p-tolyl)benzamide]",IC50,29 nM
"COc1cccc(S(=O)(=O)Nc2ccccc2C(=O)Nc2cc3ccccc3s2)c1 [JRW-1230, N-(benzo[b]thiophen-2-yl)-2-((3-methoxyphenyl)sulfonamido)benzamide]",IC50,7.8 nM
"Cc1ccc(NC(=O)c2cc(O)ccc2NS(=O)(=O)c2ccc(C)cc2)cc1 [JRW-1232, 5-hydroxy-2-((4-methylphenyl)sulfonamido)-N-(p-tolyl)benzamide]",IC50,1000 nM
"Cc1ccc(NC(=O)c2ccccc2NS(=O)(=O)c2cccc(O)c2)cc1 [JRW-1236, 2-((3-hydroxyphenyl)sulfonamido)-N-(p-tolyl)benzamide]",IC50,33 nM
"Cc1ccc(NC(=O)c2ccccc2NS(=O)(=O)c2cccc(-c3ccccc3)c2)cc1 [JRW-1248, 2-([1,1′-biphenyl]-3-sulfonamido)-N-(p-tolyl)benzamide]",IC50,280 nM
"COC(=O)c1cccc(S(=O)(=O)Nc2ccccc2C(=O)Nc2ccc(C)cc2)c1 [JRW-1250, methyl 3-(N-(2-(p-tolylcarbamoyl)phenyl)sulfamoyl)benzoate]",IC50,540 nM
"CC(=O)Nc1cccc(S(=O)(=O)Nc2ccccc2C(=O)Nc2ccc(C)cc2)c1 [JRW-1253, 2-((3-acetamidophenyl)sulfonamido)-N-(p-tolyl)benzamide]",IC50,2300 nM
